# Experimental data published in US20260139017A1, “COMPOSITIONS AND METHODS USING REELIN IN ALZHEIMER'S DISEASE” (The General Hospital Corporation, priority 2022, published 2026).
# Columns and labels:
# Assay type in all cases: binding
# [1] = Heparin HPLC, peak retention time in KCl elution; details: isocratic 1M KCl elution, long and short peptides
# Method: […] 50 μl of 0.3 μg/μL uncleaved or cleaved WT Reelin peptide was used at 0.3 ml/min in 0.15MKCl, 10 mM PBS. 0-13.5 min: 0.15M KCl to load sample, 13.5-14.5 min: ramp to 0.5M KCl, 14.5-24.5 min: 0.5-1M KCl gradient (ramp), 24.5-45 min: 1M KCl (isocratic elution), 45-55 min: 1M KCl at 0.6 ml/min (wash), 55.0-56.0 min: ramp to 0.15M KCl at 0.3 ml/min, 56.0-59.0 min: 0.15M KCl (reset column). Fluorescence Intensities were measured at an excitation wavelength of 260 nm and emission wavelength of 290 nm, based on fluorescence properties of aromatic amino acids. To assess fluorescence properties of peptides, 15 ul of ˜0.6 ug/mL of peptide was diluted in 500 μL of 0.15MKCl, 10 mM PBS, and peak excitation and emission of peptides was calculated from the 2D graphical data.
# The column chromatography method was adapted from previous research from the laboratory (2). Based on the column chromatography data, the initial protocol used a NaCl gradient from 0-1 M and a 5M salt wash to reset the HPLC column. However, the high salt gradient was corrosive to the HPLC machine parts. Therefore, KCl was considered because the […]. A lower molar concentration of a buffer with KCl could be used to disrupt heparin—Reelin CTR interactions compared to NaCl to help keep the HPLC pumps free of residual salts and potential corrosion. Since a lower concentration of salt was used, the amount of time needed at an […] hold of 1M KCl was extended until the peptide signal could not be detected before the column was equilibrated for the next sample.
# [2] = Bio-layer interferometry (BLI) of Fc-fusion CTR-RELN on heparin coated biosensor; details: Fc-fusion (short, furin-cleaved) CTR
# Method: We used Fc-fusion Reelin CTR peptides since peptides alone would be smaller than the limit of detection in this experimental design. To assess heparin—Fc-Reelin interaction, the octet system (bio-layer interferometry) was used to assess heparin-protein kinetics. 50 μg/mL biotinylated heparin was immobilized on the biosensor tip surface for 300 sec on preconditioned biosensors. This was followed by quenching with biocytin at 50 μg/ml, baseline buffer diluent for 120 sec, 200 nM of analyte (Fc-fusion proteins) for 120 sec, and disassociation in assay buffer for 120 sec.
# (§1) The experimental data were fit with the 1:1 binding model and analyzed with global fitting using Octet Data Analysis software to calculate KD.
# NRP1 = target: T1, NRP1 (Homo sapiens, UniProt O14786); assay: Bio-layer interferometry (BLI) of CTR-RELN-NRP-1 interactions; details: Fc-fusion peptides
# T1 construct: purchased R&D 3870-N1-025
# T1 sequence (O14786 22-644 isoform O14786-2 limits assumed): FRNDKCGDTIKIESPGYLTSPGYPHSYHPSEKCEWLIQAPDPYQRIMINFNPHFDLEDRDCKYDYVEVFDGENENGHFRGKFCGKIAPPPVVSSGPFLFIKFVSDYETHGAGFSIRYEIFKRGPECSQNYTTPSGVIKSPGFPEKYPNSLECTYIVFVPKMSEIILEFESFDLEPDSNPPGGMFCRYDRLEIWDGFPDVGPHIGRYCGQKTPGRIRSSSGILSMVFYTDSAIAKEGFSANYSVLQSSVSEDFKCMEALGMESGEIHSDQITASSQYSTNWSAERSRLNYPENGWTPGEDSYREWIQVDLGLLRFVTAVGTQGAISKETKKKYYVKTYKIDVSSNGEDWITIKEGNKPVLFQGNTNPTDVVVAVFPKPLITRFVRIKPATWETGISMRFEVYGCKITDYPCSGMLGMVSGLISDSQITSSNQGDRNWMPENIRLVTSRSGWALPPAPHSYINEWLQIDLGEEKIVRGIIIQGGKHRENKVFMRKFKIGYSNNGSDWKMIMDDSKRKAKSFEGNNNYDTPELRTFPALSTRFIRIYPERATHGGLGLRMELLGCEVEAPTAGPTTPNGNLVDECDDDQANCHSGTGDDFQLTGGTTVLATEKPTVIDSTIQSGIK
# Method: (§2) Bio-layer interferometry (BLI) was additionally used to assess NRP1-protein kinetics at 30° C. and 1000 rpm agitation. 1 mg/mL NRP1 (R&D 3870-N1-025) was biotinylated at a 1:2 molar ratio, desalted, and immobilized on the SA biosensor tip (Pall ForteBio) surface. This was followed by 1) 180 seconds baseline buffer diluent, 2) loading of the ligand (NRP1), 3) 180 seconds baseline buffer diluent, 4) 240 seconds association (analyte), and 5) 300 seconds disassociation in assay buffer. Assay buffer: SD Buffer (pH7.4 PBS, 0.05% tween20, 0.01% BSA).
# as §1
# as §2, with “was” for “was additionally”, “agitation using previously published methods.” for “agitation.”
sequence,measurement,setting,value
RKQNYMMNFSRQHGLRRFYNRRRRSLRRYP [CTR-RELN H3447R],peak retention time on heparin HPLC,[1]; listed as H3447R,increased later peak retention times
same,peak retention time on heparin HPLC,[1]; listed as H3447R Reelin,significantly later peak retention time
same,peak retention time on heparin HPLC,[1]; listed as RELN H3447R,delayed peak times
same,interaction/affinity with heparin relative to WT,[2]; listed as H3447R,~2 fold
same,interaction/affinity with heparin relative to WT,[2]; listed as RELN H3447R,about 2 fold
same,affinity for NRP1 relative to WT,NRP1,10 fold
